# Tests used:
# [1] = Inhibition of IGF-II stimulated MCF-7 human breast tumor cell proliferation
# [2] = Inhibition of IGF-I stimulated MCF-7 human breast tumor cell proliferation
compound,measurement,setting,value
COc1cc(/C=C(\C#N)c2ccccn2)ccc1O,IC50,[1],3.2 µM
same,IC50,[2],2900 nM
